Source: US20030175964A1, “Use of eicosanoids for tissue engineering” (Kantonsspital Basel, priority 2000, published 2003)

Tests used:
human chondrocytes = assay: Redifferentiation of expanded human chondrocytes in pellet culture, real-time quantitative PCR of differentiation indexes; type: cell-based
Protocol: Human articular cartilage samples were collected from the hip of 3 patients with no history of joint disease, undergoing joint replacement, following femoral neck fracture.
The cartilage samples were harvested aseptically and digested with 0.15% type II collagenase for 22 hours to isolate primary chondrocytes. The cells were washed and resuspended in Dulbecco's modified Eagles medium (DMEM) supplemented with 10% fetal bovine serum, 4′500 mg/l D-Glucose, nonessential amino acids, 1 mM sodium pyruvate, 100 mM HEPES buffer, 100 U/ml penicillin, 100 μg/ml streptomycin, and 0.29 mg/ml L-glutamine (control medium, CTR). Chondrocytes were seeded into tissue culture flasks at approximately 10^4 cells/cm^2 and cultured in a humidified 37° C./5% CO^2 incubator.
After approximately 10 days, when the cells were confluent, first passage cells (P1) were detached using 0.25% trypsin/1 mM EDTA and replated at 5×10^3 cells/cm^2. After one more week, when the cells reached again confluency, second passage (P2) cells were trypsinised and cultured in pellets. Throughout the expansion phase, cells were cultured in control medium, with or without the addition of 5 ng/ml of Fibroblast Growth Factor-2 (FGF-2).
The cells were suspended at 5×10^5 cells/0.5 ml of serum-free medium (SF) consisting of DMEM supplemented with ITS+1 (containing 10 μg/ml insulin, 5.5 μg/ml transferrin, 5 ng/ml selenium, 0.5 mg/ml bovine serum albumin, 4.7 μg/ml linoleic acid), 0.1 mM ascorbic-acid 2-Phosphate, and 1.25 μg/ml human serum albumin. This suspension was centrifuged at less than 8000 rpm for 15 seconds in polypropylene conical tubes to form spherical pellets which were then statically incubated in a humidified 37° C./5% CO^2 incubator for 24 hours. […]
P, alone or in combination with A and/or D and/or H and/or T, was supplemented to the SF medium during 3D culture of the human chondrocyte cell pellets. After two weeks, the differentiation indexes (CII/CI and Agg/Ver) were assessed. […]
Further, for each primary culture, 2 pellets were formed per experimental group and assessed histologically and for quantitative PCR as described below.
Theoretical Basis. Real-time quantitative PCR monitors the degradation of a sequence-specific, dual-labeled fluorescent probe after each cycle of PCR amplification. […] After subtraction of the background fluorescence, calculated during the first 15 amplification cycles, the measured fluorescence is graphed as an amplification plot. […] The Ct value is correlated to input target mRNA amount: a larger starting quantity of mRNA target results in a lower number of PCR cycles required for the reporter fluorescent emission to reach the threshold, and therefore a lower Ct value. […]

chondrocytes = settings: cited from earlier work
[1] = SF medium supplemented with P, 1 μg/ml, two weeks, vs control culture

Compound	Agg/Ver differentiation index, increase compared to the control culture (human chondrocytes; [1])	CII/CI differentiation index, increase compared to the control culture (human chondrocytes; [1])	effects on differentiation indexes and CI mRNA on chondrocytes expanded with FGF-2 (human chondrocytes; chondrocytes expanded with 5 ng/ml FGF-2, compared with those expanded without FGF-2)	expression of CI (collagen type I) mRNA (human chondrocytes; pellets, SF medium supplemented with P)	cartilaginous tissue formed after seeding onto three-dimensional polymer scaffolds (chondrocytes; chondrocytes expanded in the presence of FGF-2, versus freshly isolated (primary) chondrocytes)	formation of thick F-actin structures during monolayer expansion (chondrocytes; monolayer expansion in the presence of FGF-2)
CCCCC[C@H](O)/C=C/[C@H]1[C@H](O)CC(=O)[C@@H]1C/C=C\CCCC(=O)O [P, prostaglandin E2]	at least 2 orders of magnitude	at least 2 orders of magnitude	comparable	decrease	–	–
FGF-2: fibroblast growth factor-2, growth factor added during monolayer expansion of chondrocytes	–	–	–	–	histologically and biochemically comparable to that obtain using freshly isolated chondrocytes	inhibits
